For orientation: MIC means the least concentration at which growth counts as inhibited.

In brackets after ≈: the same amount, converted by molar mass.

The first test has as its system Mycobacterium tuberculosis. The experiment in a line: Ratio of compound MIC over ethambutol MIC for Mycobacterium tuberculosis H37Rv. Format: functional.
For the compound `CN1CCC2(CN(N=O)CCC2=O)C12C(=O)Nc1ccc(Br)cc12` (stereo not drawn), the Ratio is given as 3.86.

A further test relates to Mycobacterium tuberculosis. In words: Antimycobacterial activity against Mycobacterium tuberculosis H37Rv by agar dilution method. Type of test: functional. (In general: Agar dilution tests growth on a series of plates holding different concentrations.)
Take `Cc1ccc2c(c1)C1(NC(c3ccccc3)C(c3ccccc3)C13CN(c1ccccc1)CCC3=O)C(=O)N2` (stereo not drawn): inhibition of growth (MIC) required 23.7 µM (≈ 12.2 µg/mL).

In the case of `O=C1Nc2ccc(Cl)cc2C12NC(c1ccccc1)C(c1ccccc1)C21CCCCC1=O` (stereo not drawn), inhibition of growth (MIC) required 13.7 µM (≈ 6.25 µg/mL).

In turn, `Cc1ccc2c(c1)C1(C(=O)N2)N(C)CCC12CCCCC2=O` (stereo not drawn) came in with an MIC of 41.9 µM (≈ 12.5 µg/mL).

Turning to `CC[C@@H](CO)NCCN[C@@H](CC)CO` [ETHAMBUTOL], the MIC was 7.64 µM (≈ 1.56 µg/mL).

Compound `Cc1ccc2c(c1)C1(C(=O)N2)C2CCCN2C2(C(=O)Nc3ccc(C)cc32)C2CCCN21` (stereo not drawn) registered an MIC of 29.2 µM (≈ 12.5 µg/mL).

`CN1CCC2(CCCCC2=O)C12C(=O)Nc1ccc(Br)cc12` (stereo not drawn): it took 4.29 µM (≈ 1.56 µg/mL) to inhibit growth (MIC).

The compound `CC(C)c1cccc2c1NC(=O)C21NC(c2ccccc2)C(c2ccccc2)C12CN(c1ccccc1)CCC2=O` (stereo not drawn) came in with an MIC of 22.5 µM (≈ 12.2 µg/mL).

The compound `O=C1Nc2ccc(Br)cc2C12NC(c1ccccc1)C(c1ccccc1)C21CCCCC1=O` (stereo not drawn) had an MIC of 6.24 µM (≈ 3.13 µg/mL).

`NC(=O)c1cnccn1` [PYRAZINAMIDE] had an MIC of 50.8 µM (≈ 6.25 µg/mL).

For the compound `O=C1Nc2ccc(Br)cc2C12C1CCCN1C1(C(=O)Nc3ccc(Br)cc31)C1CCCN12` (stereo not drawn), the minimal inhibitory concentration (MIC) was found to be 5.61 µM (≈ 3.13 µg/mL).

For the compound `CN1CCC2(CCCCCC2=O)C12C(=O)Nc1ccc(Br)cc12` (stereo not drawn), the lowest concentration to inhibit growth (MIC) was 4.13 µM (≈ 1.56 µg/mL). This MIC and that of the compound before are within 1.5-fold of each other.

`CC(C)c1cccc2c1NC(=O)C21N(C)CCC12CCCC2=O` (stereo not drawn) gave a minimal inhibitory concentration (MIC) of 160 µM (≈ 50 µg/mL). This MIC is about 39-fold higher than that of the compound before.

On to `Cc1ccc2c(c1)C1(NC(c3ccccc3)C(c3ccccc3)C13CCCCC3=O)C(=O)N2` (stereo not drawn), for which 115 µM (≈ 50 µg/mL) was the least that counted as inhibitory (MIC).

In the case of `O=C1Nc2ccccc2C12C1CCCN1C1(C(=O)Nc3ccccc31)C1CCCN12` (stereo not drawn), the MIC worked out at 125 µM (≈ 50 µg/mL).

The compound `CC(C)c1cccc2c1NC(=O)C21NC(c2ccccc2)C(c2ccccc2)C12CCCCC2=O` (stereo not drawn) yielded a minimum inhibitory concentration (MIC) of 13.4 µM (≈ 6.25 µg/mL).

Compound `CC(C)c1cccc2c1NC(=O)C21N(C)CCC12CCCCCC2=O` (stereo not drawn) yielded an MIC of 73.4 µM (≈ 25 µg/mL).

Compound `Cc1ccc2c(c1)C1(C(=O)N2)N(C)CCC12CN(N=O)CCC2=O` (stereo not drawn) had an MIC of 4.75 µM (≈ 1.56 µg/mL).

As to `CN1CCC(=O)C2(C1)C(c1ccccc1)C(c1ccccc1)NC21C(=O)Nc2ccc(Cl)cc21` (stereo not drawn), the minimal inhibitory concentration (MIC) turned out to be 26.5 µM (≈ 12.5 µg/mL).

For the compound `Cc1ccc2c(c1)C1(C(=O)N2)N(C)CCC12CN(C)CCC2=O` (stereo not drawn), the MIC is 19.9 µM (≈ 6.25 µg/mL).

Consider `O=C1Nc2ccc(Cl)cc2C12NC(c1ccccc1)C(c1ccccc1)C21CN(c2ccccc2)CCC1=O` (stereo not drawn), for which the MIC worked out at 22.8 µM (≈ 12.2 µg/mL).

As to `CC(C)c1cccc2c1NC(=O)C21NC(c2ccccc2)C(c2ccccc2)C12CCCC2=O` (stereo not drawn), inhibition of growth (MIC) required 27.7 µM (≈ 12.5 µg/mL).

`CC(C)c1cccc2c1NC(=O)C21NC(c2ccccc2)C(c2ccccc2)C12CN(C)CCC2=O` (stereo not drawn) registered a minimum inhibitory concentration (MIC) of 26.1 µM (≈ 12.5 µg/mL).

`O=C1Nc2ccccc2C12NC(c1ccccc1)C(c1ccccc1)C21CCCCC1=O` (stereo not drawn) showed a minimal inhibitory concentration (MIC) of 118 µM (≈ 50 µg/mL).

Turning to `O=C1Nc2ccccc2C12NC(c1ccccc1)C(c1ccccc1)C21CCCC1=O` (stereo not drawn), the MIC was determined as 61.2 µM (≈ 25 µg/mL).

In turn, `NNC(=O)c1ccncc1` [ISONIAZID] yielded an MIC of 0.36 µM (≈ 0.0494 µg/mL). Compared with the last compound, the MIC is about 170-fold lower.

`Cc1ccc2c(c1)C1(NC(c3ccccc3)C(c3ccccc3)C13CN(C)CCC3=O)C(=O)N2` (stereo not drawn) yielded a minimal inhibitory concentration (MIC) of 55.4 µM (≈ 25 µg/mL).

`O=C1Nc2ccc(Br)cc2C12NC(c1ccccc1)C(c1ccccc1)C21CN(c2ccccc2)CCC1=O` (stereo not drawn) came in with an MIC of 10.6 µM (≈ 6.1 µg/mL).

On to `CN1CCC2(CCCC2=O)C12C(=O)Nc1ccc(Cl)cc12` (stereo not drawn), for which the MIC turned out to be 41 µM (≈ 12.5 µg/mL).

Consider `CN1CCC(=O)C2(C1)C(c1ccccc1)C(c1ccccc1)NC21C(=O)Nc2ccc(Br)cc21` (stereo not drawn), for which the minimum inhibitory concentration (MIC) is 6.06 µM (≈ 3.13 µg/mL).

For `CN1CCC2(CCCC2=O)C12C(=O)Nc1ccc(Br)cc12` (stereo not drawn), inhibition of growth (MIC) required 8.96 µM (≈ 3.13 µg/mL).

As for `CC(C)c1cccc2c1NC(=O)C21N(C)CCC12CN(C)CCC2=O` (stereo not drawn), the MIC amounted to 36.6 µM (≈ 12.5 µg/mL).

For the compound `CN1CCC(=O)C2(CCN(C)C23C(=O)Nc2ccc(Cl)cc23)C1` (stereo not drawn), the MIC was 37.5 µM (≈ 12.5 µg/mL).

Turning to `CC(C)c1cccc2c1NC(=O)C21N(C)CCC12CN(N=O)CCC2=O` (stereo not drawn), inhibition of growth (MIC) required 8.78 µM (≈ 3.13 µg/mL).

For `CN1CCC2(CN(N=O)CCC2=O)C12C(=O)Nc1ccc(Br)cc12` (stereo not drawn), the lowest concentration to inhibit growth (MIC) was 1.98 µM (≈ 0.779 µg/mL).

Compound `CN1CCC2(CN(N=O)CCC2=O)C12C(=O)Nc1ccc(Cl)cc12` (stereo not drawn) had an MIC of 4.47 µM (≈ 1.56 µg/mL).

In the case of `CN1CCC(=O)C2(CCN(C)C23C(=O)Nc2ccc(Br)cc23)C1` (stereo not drawn), the minimum inhibitory concentration (MIC) is 33 µM (≈ 12.5 µg/mL).

Compound `CN1CCC2(CCCCCC2=O)C12C(=O)Nc1ccc(Cl)cc12` (stereo not drawn) returned an MIC of 18.8 µM (≈ 6.25 µg/mL).

`CC(C)c1cccc2c1NC(=O)C21N(C)CCC12CCCCC2=O` (stereo not drawn) came in with an MIC of 38.3 µM (≈ 12.5 µg/mL).

`O=C1Nc2ccc(Cl)cc2C12C1CCCN1C1(C(=O)Nc3ccc(Cl)cc31)C1CCCN12` (stereo not drawn) returned a minimum inhibitory concentration (MIC) of 26.6 µM (≈ 12.5 µg/mL).

As to `CN1CCC2(CCCCC2=O)C12C(=O)Nc1ccc(Cl)cc12` (stereo not drawn), inhibition of growth (MIC) required 39.2 µM (≈ 12.5 µg/mL).

In turn, `Cc1ccc2c(c1)C1(C(=O)N2)N(C)CCC12CCCCCC2=O` (stereo not drawn) showed a minimum inhibitory concentration (MIC) of 40 µM (≈ 12.5 µg/mL).

For the next test, the system named is Mycobacterium tuberculosis. In words: Ratio of compound MIC over pyrazinamide MIC for Mycobacterium tuberculosis H37Rv. Type of test: functional.
As for `CN1CCC2(CN(N=O)CCC2=O)C12C(=O)Nc1ccc(Br)cc12` (stereo not drawn), the Ratio is 25.64.

For the origin of these results see ChEMBL document CHEMBL1156250, “Novel three-component domino reactions of ketones, isatin and amino acids: synthesis and discovery of antimycobacterial activity of highly functionalised novel dispiropyrrolidines” (2010).
